This note sets out measurements from PubChem BioAssay AID1259407 (Chemical Carcinogenesis Research Information System (CCRIS), 2018).

The data set concerns CCRIS mutagenicity, Ames/micronucleus/aberration tests. Put plainly: CCRIS mutagenicity studies.
Setting [1] is: Test System: AMES SALMONELLA TYPHIMURIUM, Strain/Indicator: TA98, Metabolic Activation: NONE, Method: PREINCUBATION
Where [2] appears, read: Test System: AMES SALMONELLA TYPHIMURIUM, Strain/Indicator: TA98, Metabolic Activation: S-9, Method: PREINCUBATION
[3] abbreviates: Test System: AMES SALMONELLA TYPHIMURIUM, Strain/Indicator: TA100, Metabolic Activation: NONE, Method: PREINCUBATION

Structures are written as SMILES. The source made the active and inactive calls. The rule behind the calls is not given here.

Take `O=[N+]([O-])c1ccc2c(c1)Cc1cccc(O)c1-2`: the mutagenic call runs as follows: under setting [1], “active; positive”; under setting [2], “active; positive”.
For `Cc1cc2c(C(C)C)c(O)c(O)c(C=O)c2c(O)c1-c1c(C)cc2c(C(C)C)c(O)c(O)c(C=O)c2c1O`, the mutagenic call by setting is: (Test System: AMES SALMONELLA TYPHIMURIUM, Strain/Indicator: TA98, Metabolic Activation: NONE, Method: STANDARD PLATE) “inactive; negative”; (Test System: AMES SALMONELLA TYPHIMURIUM, Strain/Indicator: TA98, Metabolic Activation: RAT, LIVER, S-9, AROCLOR 1254 OR PHENOBARBITAL, Method: STANDARD PLATE) “inactive; negative”; (Test System: AMES SALMONELLA TYPHIMURIUM, Strain/Indicator: TA100, Metabolic Activation: NONE, Method: STANDARD PLATE) “inactive; negative”; (Test System: AMES SALMONELLA TYPHIMURIUM, Strain/Indicator: TA100, Metabolic Activation: RAT, LIVER, S-9, AROCLOR 1254 OR PHENOBARBITAL, Method: STANDARD PLATE) “inactive; negative”.
`C=CC1=C(C)C(=O)N/C1=C\c1[nH]c(Cc2[nH]c(/C=C3\NC(=O)C(C)=C3C=C)c(C)c2CCC(=O)NCCS(=O)(=O)O)c(CCC(=O)NCCS(=O)(=O)O)c1C`: the mutagenic call by setting is: (Test System: Ames Salmonella typhimurium, Strain/Indicator: TA98, Metabolic Activation: Liver, S-9, Method: Preincubation) “inactive; negative”; (Test System: Ames Salmonella typhimurium, Strain/Indicator: TA98, Metabolic Activation: None, Method: Preincubation) “inactive; negative”; (Test System: Ames Salmonella typhimurium, Strain/Indicator: TA100, Metabolic Activation: Liver, S-9, Method: Preincubation) “inactive; negative”; (Test System: Ames Salmonella typhimurium, Strain/Indicator: TA100, Metabolic Activation: None, Method: Preincubation) “inactive; negative”; (Test System: Ames Salmonella typhimurium, Strain/Indicator: TA102, Metabolic Activation: Liver, S-9, Method: Preincubation) “inactive; negative”; (Test System: Ames Salmonella typhimurium, Strain/Indicator: TA102, Metabolic Activation: None, Method: Preincubation) “inactive; negative”.
For `CCN(CC)CCCC(C)Nc1cc(OC)cc2cccnc12` (stereo not drawn), the mutagenic call reads like this: (Test System: AMES SALMONELLA TYPHIMURIUM, Strain/Indicator: TA97, Metabolic Activation: NONE, Method: PREINCUBATION) “inactive; negative”; (Test System: AMES SALMONELLA TYPHIMURIUM, Strain/Indicator: TA97, Metabolic Activation: RAT, LIVER, S-9, PHENOBARBITAL AND BETA-NAPHTHOFLAVONE, Method: PREINCUBATION) “inactive; negative”; under setting [1], “active; positive”; (Test System: AMES SALMONELLA TYPHIMURIUM, Strain/Indicator: TA98, Metabolic Activation: RAT, LIVER, S-9, PHENOBARBITAL AND BETA-NAPHTHOFLAVONE, Method: PREINCUBATION) “inactive; negative”; under setting [3], “inactive; negative”; (Test System: AMES SALMONELLA TYPHIMURIUM, Strain/Indicator: TA100, Metabolic Activation: RAT, LIVER, S-9, PHENOBARBITAL AND BETA-NAPHTHOFLAVONE, Method: PREINCUBATION) “inactive; negative”. Moreover, the mutagenic call by setting is: (Test System: AMES SALMONELLA TYPHIMURIUM, Strain/Indicator: TA102, Metabolic Activation: NONE, Method: PREINCUBATION) “inactive; negative”; (Test System: AMES SALMONELLA TYPHIMURIUM, Strain/Indicator: TA102, Metabolic Activation: RAT, LIVER, S-9, PHENOBARBITAL AND BETA-NAPHTHOFLAVONE, Method: PREINCUBATION) “inactive; negative”; (Test System: E.COLI, Strain/Indicator: WP2UVRA/PKM101, Metabolic Activation: NONE, Method: PREINCUBATION) “inactive; negative”; (Test System: E.COLI, Strain/Indicator: WP2UVRA/PKM101, Metabolic Activation: RAT LIVER S-9, PHENOBARBITAL AND 5,6-BENZOFLAVONE, Method: PREINCUBATION) “inactive; negative”.
As for `C=C1/C(=C\C=C2/CCC[C@]3(C)[C@@H]([C@H](C)/C=C/[C@@H](O)C4CC4)CC[C@@H]23)C[C@@H](O)C[C@@H]1O`, the mutagenic call by setting is: under setting [1], “inactive; negative”; under setting [2], “inactive; negative”; under setting [3], “inactive; negative”; (Test System: AMES SALMONELLA TYPHIMURIUM, Strain/Indicator: TA100, Metabolic Activation: S-9, Method: PREINCUBATION) “inactive; negative”; (Test System: AMES SALMONELLA TYPHIMURIUM, Strain/Indicator: TA1535, Metabolic Activation: NONE, Method: PREINCUBATION) “inactive; negative”; (Test System: AMES SALMONELLA TYPHIMURIUM, Strain/Indicator: TA1535, Metabolic Activation: S-9, Method: PREINCUBATION) “inactive; negative”. Moreover, the mutagenic call runs as follows: (Test System: AMES SALMONELLA TYPHIMURIUM, Strain/Indicator: TA1537, Metabolic Activation: NONE, Method: PREINCUBATION) “inactive; negative”; (Test System: AMES SALMONELLA TYPHIMURIUM, Strain/Indicator: TA1537, Metabolic Activation: S-9, Method: PREINCUBATION) “inactive; negative”; (Test System: E. COLI, Strain/Indicator: WP2 UVRA, Metabolic Activation: NONE, Method: PREINCUBATION) “inactive; negative”; (Test System: E. COLI, Strain/Indicator: WP2 UVRA, Metabolic Activation: S-9, Method: PREINCUBATION) “inactive; negative”.
On to `O=c1c(=O)c2cc3ccccc3c3ccc4cccc1c4c23`, for which the mutagenic call (Test System: AMES SALMONELLA TYPHIMURIUM, Strain/Indicator: TA100, Metabolic Activation: RAT, LIVER, S-9, AROCLOR 1254, Method: STANDARD PLATE) was “active; positive”.
